Assay results from PubChem BioAssay AID1963874 (Molecular Pharmacology Branch, DTP, NCI, 2024).

Tested on: 253994-281-T-J1-PDC KRAS-mutant spheroids with HUVEC/MSC, viability
Experiment: Anticancer human tumor 253994-281-T-J1-PDC patient-derived colorectal carcinoma cell line growth inhibition [KRAS2]
Settings: for IC50: curve of first compound; for viability, T/C: stronger effect = lower value
Method in brief: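 Combination screen of spheroid viability in tumor-cell co-cultures with endothelial (HUVEC) and mesenchymal stem cell stroma. Each agent was tested in half-log dilutions, topping at clinical Cmax or at 10 microM without a known Cmax.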

[1] = second compound 0.1 µM, first compound 0.000316 µM
[2] = second compound 0.1 µM, first compound 0.001 µM
[3] = second compound 0.1 µM, first compound 0.00316 µM
[4] = second compound 0.1 µM, first compound 0.01 µM
[5] = second compound 0.1 µM, first compound 0.0316 µM
[6] = second compound 0.1 µM, first compound 0.1 µM
[7] = second compound 0.316 µM, first compound 0.000316 µM
[8] = second compound 0.316 µM, first compound 0.001 µM
[9] = second compound 0.316 µM, first compound 0.00316 µM
[10] = second compound 0.316 µM, first compound 0.01 µM
[11] = second compound 0.316 µM, first compound 0.0316 µM
[12] = second compound 0.316 µM, first compound 0.1 µM
[13] = second compound 1 µM, first compound 0.000316 µM
[14] = second compound 1 µM, first compound 0.001 µM
[15] = second compound 1 µM, first compound 0.00316 µM
[16] = second compound 1 µM, first compound 0.01 µM
[17] = second compound 1 µM, first compound 0.0316 µM
[18] = second compound 1 µM, first compound 0.1 µM
[19] = second compound 3.16 µM, first compound 0.000316 µM
[20] = second compound 3.16 µM, first compound 0.001 µM
[21] = second compound 3.16 µM, first compound 0.00316 µM
[22] = second compound 3.16 µM, first compound 0.01 µM
[23] = second compound 3.16 µM, first compound 0.0316 µM
[24] = second compound 3.16 µM, first compound 0.1 µM
[25] = second compound 10 µM, first compound 0.000316 µM
[26] = second compound 10 µM, first compound 0.001 µM
[27] = second compound 10 µM, first compound 0.00316 µM
[28] = second compound 10 µM, first compound 0.01 µM
[29] = second compound 10 µM, first compound 0.0316 µM
[30] = second compound 10 µM, first compound 0.1 µM
[31] = second compound 0.1 µM, first compound 0.316 µM
[32] = second compound 0.1 µM, first compound 1 µM
[33] = second compound 0.1 µM, first compound 3.16 µM
[34] = second compound 0.316 µM, first compound 0.316 µM
[35] = second compound 0.316 µM, first compound 1 µM
[36] = second compound 0.316 µM, first compound 3.16 µM
[37] = second compound 1 µM, first compound 0.316 µM
[38] = second compound 1 µM, first compound 1 µM
[39] = second compound 1 µM, first compound 3.16 µM
[40] = second compound 3.16 µM, first compound 0.316 µM
[41] = second compound 3.16 µM, first compound 1 µM
[42] = second compound 3.16 µM, first compound 3.16 µM
[43] = second compound 10 µM, first compound 0.316 µM
[44] = second compound 10 µM, first compound 1 µM
[45] = second compound 10 µM, first compound 3.16 µM
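Further: spheroids exposed to agents for seven days before readout.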
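Wherever viability, T/C is given: percent of DMSO vehicle control viability.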

Compound	IC50 (second compound 0.1 µM)	IC50 (second compound 0.316 µM)	IC50 (second compound 1 µM)	IC50 (second compound 3.16 µM)	IC50 (second compound 10 µM)	viability, T/C [4]	viability, T/C [5]	viability, T/C [6]	viability, T/C [10]	viability, T/C [11]	viability, T/C [12]	viability, T/C [16]	viability, T/C [17]	viability, T/C [18]	viability, T/C [22]	viability, T/C [23]	viability, T/C [24]	viability, T/C [28]	viability, T/C [29]	viability, T/C [30]	other results
Cn1ncnc1[C@H]1c2n[nH]c(=O)c3cc(F)cc(c23)N[C@@H]1c1ccc(F)cc1 + COc1cc2nc(C)nc(NC(C)c3cc(N)cc(C(F)(F)F)c3)c2cc1OC1CCOC1	> 100 nM	> 100 nM	> 100 nM	> 100 nM	> 100 nM	90.8%	92.5%	78.8%	80.4%	91.9%	78.1%	89.1%	87.1%	85.3%	89.7%	77.2%	85.5%	77.7%	83.7%	68.3%	viability, T/C [1]: 92.5%; viability, T/C [2]: 95.7%; viability, T/C [3]: 79%; viability, T/C [7]: 80%; viability, T/C [8]: 84.5%; viability, T/C [9]: 86.1%; viability, T/C [13]: 88.5%; viability, T/C [14]: 92.2%; viability, T/C [15]: 86.6%; viability, T/C [19]: 87.5%; viability, T/C [20]: 86.5%; viability, T/C [21]: 91.7%; viability, T/C [25]: 80.9%; viability, T/C [26]: 84.7%; viability, T/C [27]: 72.6%
CC(C)n1nc(-c2ccc3oc(N)nc3c2)c2c(N)ncnc21 + C=CC(=O)N1CCN(c2nc(=O)n(-c3c(C)ccnc3C(C)C)c3nc(-c4c(O)cccc4F)c(F)cc23)C(C)C1	> 100 nM	> 100 nM	> 100 nM	> 100 nM	> 100 nM	99.3%	90.4%	78.3%	85.9%	92.1%	68.1%	78.3%	82%	64.1%	75.2%	89.1%	65.1%	80.1%	84.8%	61.9%	viability, T/C [1]: 106%; viability, T/C [2]: 106%; viability, T/C [3]: 101%; viability, T/C [7]: 98.5%; viability, T/C [8]: 97.1%; viability, T/C [9]: 87.8%; viability, T/C [13]: 102%; viability, T/C [14]: 98.8%; viability, T/C [15]: 95.7%; viability, T/C [19]: 108%; viability, T/C [20]: 105%; viability, T/C [21]: 83.5%; viability, T/C [25]: 88.7%; viability, T/C [26]: 93.8%; viability, T/C [27]: 97.7%
CCNC(=O)CC1N=C(c2ccc(Cl)cc2)c2cc(OC)ccc2-n2c(C)nnc21 (stereo not given) + COc1cc2nc(C)nc(NC(C)c3cc(N)cc(C(F)(F)F)c3)c2cc1OC1CCOC1	> 10000 nM	> 10000 nM	7760 nM	5930 nM	3250 nM	–	99%	93.9%	–	87.5%	97.6%	–	92.9%	95.4%	–	86.3%	89.1%	–	82.6%	83.2%	viability, T/C [31]: 78.1%; viability, T/C [32]: 76.5%; viability, T/C [33]: 70.5%; viability, T/C (second compound 0.1 µM, first compound 10 µM): 71.8%; viability, T/C [34]: 77.9%; viability, T/C [35]: 68.4%; viability, T/C [36]: 73%; viability, T/C (second compound 0.316 µM, first compound 10 µM): 51.1%; viability, T/C [37]: 79.8%; viability, T/C [38]: 69.5%; viability, T/C [39]: 61%; viability, T/C (second compound 1 µM, first compound 10 µM): 46.7%; viability, T/C [40]: 78.5%; viability, T/C [41]: 70.3%; viability, T/C [42]: 52.7%; viability, T/C (second compound 3.16 µM, first compound 10 µM): 47.2%; viability, T/C [43]: 87.1%; viability, T/C [44]: 62.9%; viability, T/C [45]: 53.4%; viability, T/C (second compound 10 µM, first compound 10 µM): 31.6%
CC(=O)OC12COC1CC(O)C1(C)C(=O)C(O)C3=C(C)C(OC(=O)C(O)C(NC(=O)OC(C)(C)C)c4ccccc4)CC(O)(C(OC(=O)c4ccccc4)C21)C3(C)C (stereo not given) + CNCc1ccccc1-c1csc(C(C)Nc2nc(C)nc3cc(OC)c(OC)cc23)c1	17.8 nM	12.9 nM	27.5 nM	< 10 nM	< 10 nM	68.3%	31.9%	26.6%	55.8%	30.1%	23.1%	74.8%	46.6%	26.6%	0.31%	45.6%	5.64%	0.17%	0.19%	0.16%	viability, T/C [31]: 24.7%; viability, T/C [32]: 27.1%; viability, T/C [33]: 25.2%; viability, T/C [34]: 24%; viability, T/C [35]: 26%; viability, T/C [36]: 23.6%; viability, T/C [37]: 25.6%; viability, T/C [38]: 24.4%; viability, T/C [39]: 27%; viability, T/C [40]: 0.12%; viability, T/C [41]: 6.77%; viability, T/C [42]: 27.2%; viability, T/C [43]: 0.15%; viability, T/C [44]: 0.17%; viability, T/C [45]: 0.21%
CC(=O)Nc1cccc(-n2c(=O)n(C3CC3)c(=O)c3c(Nc4ccc(I)cc4F)n(C)c(=O)c(C)c32)c1 + CC1OCC2(CCN(c3cnc(Sc4ccnc(N)c4Cl)c(N)n3)CC2)C1N	0.565 nM	0.205 nM	< 0.1 nM	< 0.1 nM	< 0.1 nM	10.1%	5.82%	–	8.18%	4.42%	–	7.13%	4.04%	–	6.59%	3.09%	–	3.06%	2.51%	–	viability, T/C (second compound 0.1 µM, first compound 0.0001 µM): 64.3%; viability, T/C [1]: 68.6%; viability, T/C [2]: 34.1%; viability, T/C [3]: 17.9%; viability, T/C (second compound 0.316 µM, first compound 0.0001 µM): 63.1%; viability, T/C [7]: 42.8%; viability, T/C [8]: 22.3%; viability, T/C [9]: 14.1%; viability, T/C (second compound 1 µM, first compound 0.0001 µM): 40.5%; viability, T/C [13]: 27.7%; viability, T/C [14]: 14.1%; viability, T/C [15]: 9.38%; viability, T/C (second compound 3.16 µM, first compound 0.0001 µM): 29.3%; viability, T/C [19]: 23.6%; viability, T/C [20]: 10.8%; viability, T/C [21]: 5.83%; viability, T/C (second compound 10 µM, first compound 0.0001 µM): 16.5%; viability, T/C [25]: 7.93%; viability, T/C [26]: 5.92%; viability, T/C [27]: 4.52%
COc1cc(Nc2ncc3c(n2)-c2ccc(Cl)cc2C(c2c(F)cccc2OC)=NC3)ccc1C(=O)O	–	–	–	–	–	–	–	–	–	–	–	–	–	–	–	–	–	–	–	–	viability, T/C (compound 0.0316 µM): 64.9% [middle of 5 runs]; viability, T/C (compound 0.1 µM): 38.8% [middle of 5 runs]; viability, T/C (compound 0.316 µM): 39.4% [middle of 5 runs]; viability, T/C (compound 1 µM): 44.9% [middle of 5 runs]; viability, T/C (compound 10 µM): 60.8% [middle of 5 runs]
